The record followed here is patent EP0549040A1, “Methods of making 4" derivatives of 9-deoxo-8a-aza-8a-alkyl-8a-homoerythromycin A” (MERCK & CO. INC., priority 1991, dated 1993).

Converted amounts (≈) assume the structure as drawn. Read-outs that look alike come from different tables or passages of the source. Some results are limits rather than exact numbers.

What all share (assay): liquid turbidimetric microtiter MIC determination in broth media
Common to all, as to assay type: cell-based

Test [1] concerns Staphylococcus aureus MB 2865. The text has this: (§1) The antibacterial activities of the compounds of Examples 8 and 10 against a panel of aerobic Gram positive and negative bacteria is shown in the following Table. The assay employs a liquid turbidimetric microtiter method for the determination of the minimum inhibitory concentration (MIC) in broth media. […] The MIC is generally not an absolute value but rather a concentration range that falls within a two-fold dilution limit. Generally twelve two-fold dilutions of the test compound are employed with the initial concentration set at 128 mcg/ml.

Test [2] has as its system Haemophilus influenzae AT 43163.
Text: as §1

Test [3] concerns Streptococcus pyogenes MB 2874.
Text: as §1

Test [4] has as its system Staphylococcus epidermidis MB 5414.
Text: as §1

The test system of another test is Escherichia coli MB 2884.
Text: as §1

The subject of test [5] is Enterobacter cloacae CL 4298.
Text: as §1

Test [6] relates to Enterococcus faecalis MB 5407.
Text: as §1

Test [7] has as its system Haemophilus influenzae MB 5363.
Text: as §1

Test [8] has as its system Klebsiella pneumoniae MB 4005.
Text: as §1

Test [9] has as its system Streptococcus pneumoniae CL 2883.
Text: as §1

For the next test, the system named is Escherichia coli MB 4926. As to conditions: MB4926, Table I.
Text: as §1

Test [10] relates to Staphylococcus haemolyticus MB 5412. As to conditions: MB5412, Table I.
Text: as §1

The subject of test [11] is Steptococcus viridans CL 2943. The conditions noted are these: Table I.
Text: as §1

Test [12] deals with Pseudomonas stutzeri MB 1231. The conditions noted are these: Stutzerimonas stutzeri, MB1231, Table I.
Text: as §1

Test [13] deals with Enterococcus faecium MB 5416. As to conditions: MB5416, Table I.
Text: as §1

Test [14] concerns Streptococcus agalactiae CL 1343. As to conditions: CL1343, Table I.
Text: as §1

Test [15] has as its system Streptococcus pyogenes MB 54061. As to conditions: MB54061, Table I.
Text: as §1

[16] abbreviates: MB2884, Table II, MIC, read-out: In vitro Activity.
Where [17] appears, read: MB2865, Table II, MIC, Staphylococcus aureus MB 2865, read-out: In vitro Activity.
[18] abbreviates: AT43163, Table II, MIC, Haemophilus influenzae AT 43163, read-out: In vitro Activity.
Where [19] appears, read: MB2874, Table II, MIC, Streptococcus pyogenes MB 2874, read-out: In vitro Activity.
The mark [20] stands for this setting: MB5414, Table II, MIC, Staphylococcus epidermidis MB 5414, read-out: In vitro Activity.
Setting [21] is: CL4298, Table II, MIC, Enterobacter cloacae CL 4298, read-out: In vitro Activity.
[22] abbreviates: MB5407, Table II, MIC, Enterococcus faecalis MB 5407, read-out: In vitro Activity.
Setting [23] is: MB5363, Table II, MIC, Haemophilus influenzae MB 5363, read-out: In vitro Activity.
The mark [24] stands for this setting: MB4005, Table II, MIC, Klebsiella pneumoniae MB 4005, read-out: In vitro Activity.
The mark [25] stands for this setting: CL2883, Table II, MIC, Streptococcus pneumoniae CL 2883, read-out: In vitro Activity.
Setting [26] is: MB2865, Table I, Staphylococcus aureus MB 2865, read-out: MIC Values.
Setting [27] is: MB2874, Table I, Streptococcus pyogenes MB 2874, read-out: MIC Values.
Where [28] appears, read: MB5414, Table I, Staphylococcus epidermidis MB 5414, read-out: MIC Values.
Setting [29] is: MB2884, Table I, read-out: MIC Values.
The mark [30] stands for this setting: MB5407, Table I, Enterococcus faecalis MB 5407, read-out: MIC Values.
The mark [31] stands for this setting: MB4005, Table I, Klebsiella pneumoniae MB 4005, read-out: MIC Values.
Setting [32] is: CL2883, Table I, Streptococcus pneumoniae CL 2883, read-out: MIC Values.

`CC[C@H]1OC(=O)[C@H](C)[C@@H](O[C@H]2C[C@@](C)(OC)[C@@H](O)[C@H](C)O2)[C@H](C)[C@@H](O[C@@H]2O[C@H](C)C[C@H](N(C)C)[C@H]2O)[C@](C)(O)C[C@@H](C)C(=O)[C@H](C)[C@@H](O)[C@]1(C)O` [Erythromycin A, erythromycin A]: the MIC in test [1] (Staphylococcus aureus, MB2865, read-out: In vitro Activity) was 0.12 mg/L (≈ 0.164 µM); in [2] (Haemophilus influenzae, AT43163, read-out: In vitro Activity) it was 2 mg/L (≈ 2.73 µM); in test [3] (Streptococcus pyogenes, MB2874, read-out: In vitro Activity), at most 0.06 mg/L; in [4] (Staphylococcus epidermidis, MB5414, read-out: In vitro Activity), 0.12 mg/L (≈ 0.164 µM); with Escherichia coli MB 2884 (setting [16]), 16 mg/L (≈ 21.8 µM); in test [5] (Enterobacter cloacae, CL4298, read-out: In vitro Activity), 16 mg/L (≈ 21.8 µM). In addition, the MIC was 1 mg/L (≈ 1.36 µM) in test [6] (Enterococcus faecalis, MB5407, read-out: In vitro Activity); 2 mg/L (≈ 2.73 µM) in [7] (Haemophilus influenzae, MB5363, read-out: In vitro Activity); 32 mg/L (≈ 43.6 µM) in test [8] (Klebsiella pneumoniae, MB4005, read-out: In vitro Activity); at most 0.06 mg/L in test [9] (Streptococcus pneumoniae, CL2883, read-out: In vitro Activity).
With “4''-epi-9-deoxo-8a-aza-8a-methyl-8a-homoerythromycin A [Example 15]”, the “In vitro Activity” value is 0.5 µg/mL in test [1] (Table II, MIC, Staphylococcus aureus MB 2865); 0.5 µg/mL in test [2] (Table II, MIC, Haemophilus influenzae AT 43163); “≦0.06 mcg/ml” in [3] (Table II, MIC, Streptococcus pyogenes MB 2874); 0.25 µg/mL in test [4] (Table II, MIC, Staphylococcus epidermidis MB 5414); 1 µg/mL with Escherichia coli MB 2884 (Table II, MIC); 0.5 µg/mL in [5] (Table II, MIC, Enterobacter cloacae CL 4298). In addition, the “In vitro Activity” value in [6] (Table II, MIC, Enterococcus faecalis MB 5407) is 1 µg/mL; in test [7] (Table II, MIC, Haemophilus influenzae MB 5363), 0.5 µg/mL; in test [8] (Table II, MIC, Klebsiella pneumoniae MB 4005), 1 µg/mL; in test [9] (Table II, MIC, Streptococcus pneumoniae CL 2883), “≦0.06 mcg/ml”.
Turning to `CC[C@H]1OC(=O)[C@H](C)[C@@H](O[C@H]2C[C@@](C)(OC)[C@@H](N)[C@H](C)O2)[C@H](C)[C@@H](O[C@@H]2O[C@H](C)C[C@H](N(C)C)[C@H]2O)[C@](C)(O)C[C@@H](C)N(C)C[C@H](C)[C@@H](O)[C@]1(C)O` [Example 19, 4''-Deoxy-4''-(S) - amino-9-deoxo-8a-aza-8a-methyl-8a-homoerythromycin A], the MIC was 1 mg/L (≈ 1.34 µM) in [1] (setting [17]); 0.25 mg/L (≈ 0.334 µM) in test [2] (setting [18]); at most 0.06 mg/L in [3] (setting [19]); 0.51 mg/L (≈ 0.682 µM) in test [4] (setting [20]); 0.12 mg/L (≈ 0.16 µM) in the test on Escherichia coli MB 2884 (setting [16]); at most 0.06 mg/L in test [5] (setting [21]). In addition, the MIC was 2 mg/L (≈ 2.67 µM) in test [6] (setting [22]), 0.25 mg/L (≈ 0.334 µM) in test [7] (setting [23]), 0.12 mg/L (≈ 0.16 µM) in test [8] (setting [24]) and at most 0.06 mg/L in test [9] (setting [25]).
On to `CC[C@H]1OC(=O)[C@H](C)[C@@H](O[C@H]2C[C@@](C)(OC)C(N)[C@H](C)O2)[C@H](C)[C@@H](O[C@@H]2O[C@H](C)C[C@H](N(C)C)[C@H]2O)[C@](C)(O)C[C@@H](C)N(C)C[C@H](C)[C@@H](O)[C@]1(C)O` (stereo partly drawn) [Example 17, 4''-Deoxy-4''-amino-9-deoxo-8a-aza-8a-methyl-8a-homoerythromycin A], for which the MIC is 1 mg/L (≈ 1.34 µM) in test [1] (setting [17]); 0.25 mg/L (≈ 0.334 µM) in test [2] (setting [18]); at most 0.06 mg/L in [3] (setting [19]); 0.5 mg/L (≈ 0.668 µM) in test [4] (setting [20]); 0.12 mg/L (≈ 0.16 µM) in the test on Escherichia coli MB 2884 (setting [16]); at most 0.06 mg/L in test [5] (setting [21]). Besides, the MIC in [6] (setting [22]) was 4 mg/L (≈ 5.35 µM); in [7] (setting [23]), 0.5 mg/L (≈ 0.668 µM); in test [8] (setting [24]), 0.12 mg/L (≈ 0.16 µM); in [9] (setting [25]), at most 0.06 mg/L.
As for `CC[C@H]1OC(=O)[C@H](C)[C@@H](O[C@H]2C[C@@](C)(OC)[C@@H](O)[C@H](C)O2)[C@H](C)[C@@H](O[C@@H]2O[C@H](C)C[C@H](N(C)C)[C@H]2O)[C@](C)(O)C[C@@H](C)N(C)C[C@H](C)[C@@H](O)[C@]1(C)O` [Example 10, 9-Deoxo-8a-aza-8a-methyl-8a-homoerythromycin A], the MIC is 0.5 mg/L (≈ 0.668 µM) in test [1] (setting [26]); at most 0.06 mg/L in test [3] (setting [27]); 0.06 mg/L (≈ 0.0801 µM) against Escherichia coli MB 4926; 1 mg/L (≈ 1.34 µM) in test [4] (setting [28]); 1 mg/L (≈ 1.34 µM) with Escherichia coli MB 2884 (setting [29]); 0.5 mg/L (≈ 0.668 µM) in test [10]. Also, the MIC in [11] was 1 mg/L (≈ 1.34 µM); in test [12] it was at most 0.06 mg/L; in test [13] it was 0.25 mg/L (≈ 0.334 µM); in test [14], at most 0.06 mg/L; in [6] (setting [30]) it was 4 mg/L (≈ 5.34 µM); in test [15], 128 mg/L (≈ 171 µM). For the same compound, the figures for the MIC in test [8] (setting [31]) and in test [9] (setting [32]) were 2 mg/L (≈ 2.67 µM) and at most 0.06 mg/L, respectively.
Consider `CC[C@H]1OC(=O)[C@H](C)[C@@H](O[C@H]2C[C@@](C)(OC)[C@@H](O)[C@H](C)O2)[C@H](C)[C@@H](O[C@@H]2O[C@H](C)C[C@H](N(C)C)[C@H]2O)[C@](C)(O)C[C@@H](C)NC[C@H](C)[C@@H](O)[C@]1(C)O` [Example 9, 9-Deoxo-8a-aza-8a-homoerythromycin A], for which the MIC in test [1] (setting [26]) is 0.5 mg/L (≈ 0.68 µM); in test [3] (setting [27]), at most 0.06 mg/L; against Escherichia coli MB 4926, 2 mg/L (≈ 2.72 µM); in [4] (setting [28]), 1 mg/L (≈ 1.36 µM); in the test with Escherichia coli MB 2884 (setting [29]), 4 mg/L (≈ 5.44 µM); in test [10] it was 0.5 mg/L (≈ 0.68 µM). The MIC in [11] is 8 mg/L (≈ 10.9 µM); in [12], at most 0.06 mg/L; in test [13] it was 0.25 mg/L (≈ 0.34 µM); in test [14], at most 0.06 mg/L; in test [6] (setting [30]), 8 mg/L (≈ 10.9 µM); in [15], 128 mg/L (≈ 174 µM). The results for the MIC in test [8] (setting [31]) and in [9] (setting [32]) were 8 mg/L (≈ 10.9 µM) and at most 0.06 mg/L, respectively.
As to `CC[C@H]1OC(=O)[C@H](C)[C@@H](O[C@H]2C[C@@](C)(OC)[C@H](N)[C@H](C)O2)[C@H](C)[C@@H](O[C@@H]2O[C@H](C)C[C@H](N(C)C)[C@H]2O)[C@](C)(O)C[C@@H](C)N(C)C[C@H](C)[C@@H](O)[C@]1(C)O` [Example 20, 4''-Deoxy-4''-(R) - amino-9-deoxo-8a-aza-8a-methyl-8a-homoerythromycin A], the MIC in [1] (setting [17]) was 1 mg/L (≈ 1.34 µM); in test [2] (setting [18]), 0.25 mg/L (≈ 0.334 µM); in test [3] (setting [19]), at most 0.06 mg/L; in test [4] (setting [20]) it was 0.5 mg/L (≈ 0.668 µM); with Escherichia coli MB 2884 (setting [16]), 0.25 mg/L (≈ 0.334 µM); in test [5] (setting [21]) it was 0.12 mg/L (≈ 0.16 µM). For the same compound, the MIC in test [6] (setting [22]) was 2 mg/L (≈ 2.67 µM); in test [7] (setting [23]), 0.5 mg/L (≈ 0.668 µM); in test [8] (setting [24]), 0.25 mg/L (≈ 0.334 µM); in test [9] (setting [25]), at most 0.06 mg/L.
